Source: PubChem BioAssay AID624405 (Broad Institute, 2012)
Results filed as inconclusive are left out.

Test system: C2C12 myotubes + simvastatin, ATP luminescence, 48 h
Test: suppressors of statin myotoxicity in myotubes, dose response, cell-based, C2C12 myotubes, ATP luminescence, cherry pick (AID 624405);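 note: myotubes are challenged with simvastatin at 10 µM to lower ATP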

Compound	AC40 [µM]
O=C(Nc1ccc(S(=O)(=O)N2CCCCC2)cc1)C1CCN(C(=O)c2ccco2)CC1	5.15
Nc1nonc1-c1nc2ccccc2n1Cc1ccc(F)cc1Cl	0.892
CCN(CC)c1ncnc2c1cnn2Cc1ccc(C)cc1	12
CC(C)OC(=O)N(C)C[C@@H]1OCc2ccccc2-c2c(n(C)c3ccccc23)C(=O)N([C@H](C)CO)C[C@H]1C	18.1
Cc1ccc(C2CC2c2n[nH]c(=S)n2-c2ccc(C)cc2)cc1 (stereo not given)	6.33
O=C1C[C@@H]2c3c(cccc3CN1Cc1ccccc1F)C[C@@H](O)[C@H]2O	17.2
CCCCCn1c(=O)c(C(=O)c2ccccc2)nc2ccccc21	15.6
O=C(/C=C/Sc1ncn[nH]1)c1ccc(Cl)cc1	6.34
C[C@H](CO)N1C[C@H](C)[C@@H](CN(C)Cc2ccc(Oc3ccccc3)cc2)Oc2ccc(NC(=O)C3CCCCC3)cc2CC1=O	8.63
Cc1cccc(C)c1Nc1nnc(SCc2cc([N+](=O)[O-])cc3c2OCOC3)s1	3.85
C[C@@H]1C[C@@H]([C@H](O)CC2CC(=O)NC(=O)C2)C(=O)[C@@H](C)C1	< 0.16
CCS(=O)(=O)c1ncc(Cl)c(C(=O)Nc2ccc(C)cc2)n1	2.8
Cc1ccc(C)c(NC(=O)C2CC3c4ccccc4C2c2ccccc23)c1 (stereo not given)	3.1
Cc1cccc(-n2c(O)c(C=NC3CCS(=O)(=O)C3)c3ccccc3c2=O)c1 (stereo not given)	17.6
O=C(C1CCC1)N1CCCc2cc(S(=O)(=O)N3CCN(c4ccccc4)CC3)ccc21	16.6
O=S(=O)(NCc1ccco1)c1ccc(S(=O)(=O)N2CCCCC2)cc1	5.03
COc1ccc(N2CCN(C(=O)c3ccc4c(c3)CCN4S(=O)(=O)c3ccccc3)CC2)cc1	16.2
Cc1ccc(S(=O)(=O)N2CCN(C(=O)c3cccs3)CC2)cc1C	9.44

Compound	AC40 [µM]
COc1ccc(S(=O)(=O)N(C)C[C@@H]2Oc3ccc(NS(=O)(=O)c4ccc(Cl)cc4)cc3CC(=O)N([C@@H](C)CO)C[C@H]2C)cc1	11.8
COc1ccc(S(=O)(=O)N(C)C[C@H]2Oc3c(NC(=O)Nc4ccc(F)cc4)cccc3C(=O)N([C@@H](C)CO)C[C@H]2C)cc1	14.5
Cc1cccc(S(=O)(=O)N2CCCCN3[C@H](CO)[C@@H](c4ccc(C#C[C@H](C)O)cc4)[C@@H]3C2)c1	17.3
C[C@@H]1CN([C@H](C)CO)C(=O)c2cccc(NC(=O)Nc3ccccc3)c2O[C@H]1CN(C)Cc1ccc(C(=O)Nc2ccccc2N)cc1	11
Oc1[nH]c2ccccc2c1C=Nc1ccc2c(c1)OCO2	1.99
N#C[C@@H]1[C@@H](c2ccccc2)[C@H](CO)N1S(=O)(=O)c1ccc(-c2ccccc2)cc1	8.78
C[C@H](CO)N1C[C@H](C)[C@@H](CN(C)Cc2ccc(C(=O)Nc3ccccc3N)cc2)Oc2ccc(NC(=O)Nc3ccc4c(c3)OCO4)cc2CC1=O	11.7
COc1ccc(C(=O)Nc2ccccc2N2CCOCC2)cc1Br	12.1
C[C@H](CO)N1C[C@H](C)[C@@H](CN(C)Cc2ccc(C(F)(F)F)cc2)Oc2ccc(NC(=O)CCCCCC(=O)Nc3ccccc3N)cc2CC1=O	8.51
COc1cccc(-c2ccc([C@@H]3[C@@H](C#N)N(C(=O)Cc4ccccc4)[C@H]3CO)cc2)c1	11.5
COc1ccc(S(=O)(=O)Nc2ccc3c(c2)C(=O)N([C@@H](C)CO)C[C@H](C)[C@H](CN(C)S(=O)(=O)c2ccc(F)cc2)OCCCC[C@@H](C)O3)cc1	17.7
C[C@H](CO)N1C[C@H](C)[C@@H](CN(C)Cc2ccc(Oc3ccccc3)cc2)Oc2c(NC(=O)Nc3cccc4ccccc34)cccc2C1=O	7.98
Cc1noc(C)c1S(=O)(=O)Nc1ccc2c(c1)CC(=O)N([C@H](C)CO)C[C@@H](C)[C@@H](CN(C)Cc1ccc(-c3ccccc3)cc1)O2	3.64
COc1ccc(-c2csc(C(C)(O)c3ccccc3)n2)cc1OC (stereo not given)	13.4
O=C(NCc1ccco1)c1cc2sccc2n1Cc1ccccc1	0.839
CC(=O)c1c(C(C)=O)c(C)n(Cc2ccc(Cl)cc2)c1C	16.9
COC(=O)[C@@]12CCCCN1[C@H](c1ccc(-c3cccc(Cl)c3)c(OC)c1)[C@@H]1C(=O)N(C)C(=O)[C@@H]12	2.72
